Reference: US9890147B2 (BAYER PHARMA AKTIENGESELLSCHAFT, priority 2012, dated 2018)

Tests used:
BRD4 (BD1) = target: T1, BRD4 (BD1) (Homo sapiens, UniProt O60885); assay: Binding assay BRD4/acetylated peptide H4 (TR-FRET protein-protein interaction assay)
T1 construct: with relatively long constructs also being possible, preferably amino acids 44-168; made in house; host or cells: E. coli
Summary of the method: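 Displacement of biotin-Ac-H4 peptide from His6-tagged BRD4(BD1), final usually 10 nM, read as Eu-streptavidin to anti-His-XL665 TR-FRET (665/620 nm). Compounds tested at 11 doses up to 20 μM in duplicate, pH 7.5 HEPES, 22 °C then 4 °C incubation; IC50 by 4-parameter regression.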

MOLM-13 cells = assay: Cell proliferation assay (alamarBlue), MOLM-13; type: cell-based; details: Homo sapiens, 96 hours incubation, inhibition of cell proliferation
Summary of the method: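 IC50 = concentration giving 50% growth inhibition relative to buffer-treated cells, after subtracting baseline fluorescence taken before dosing. Compound applied at 1E-5 to 1E-8 M for 96 h at 37 °C in RPMI1640 with 10% FCS; alamarBlue signal at 530/590 nm.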

MV4-11 cells = assay: Cell proliferation assay (alamarBlue), MV4-11; type: cell-based; details: Homo sapiens, 72 hours incubation, inhibition of cell proliferation
Summary of the method: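 Cells seeded at 5000/well in RPMI1640 + 10% FCS, incubated overnight at 37° C, then treated with compound (1E-5 to 1E-8 M) for 72 h at 37° C. Viability by alamarBlue fluorescence (ex 530/em 590 nm); pre-treatment readings subtracted, IC50 derived versus buffer-treated cells.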

B16F10 cells = assay: Cell proliferation assay (alamarBlue), B16F10; type: cell-based; details: Mus musculus, B16-F10, 96 hours incubation, inhibition of cell proliferation
Summary of the method: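 alamarBlue fluorescence (ex 530/em 590 nm) read after overnight seeding at 300-500 cells/well in DMEM + 10% FCS, then after 96 h at 37 °C with compound at 1E-8 to 1E-5 M. Baseline subtracted from endpoint, compared with buffer-treated cells; IC50 = concentration giving 50% proliferation inhibition.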

LOX-IMVI cells = assay: Cell proliferation assay (alamarBlue), LOX-IMVI; type: cell-based; details: Homo sapiens, 72 hours incubation, inhibition of cell proliferation
Summary of the method: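 alamarBlue fluorescence (530 nm excitation, 590 nm emission) measured before dosing and after 72 h at 37° C exposure to 1E-5–1E-8 M compound; 1000 cells/well plated in RPMI1640/10% FCS the night before. IC50 from baseline-corrected signal relative to buffer-treated wells.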

MOLP-8 cells = assay: Cell proliferation assay (alamarBlue), MOLP-8; type: cell-based; details: Homo sapiens, 120 hours incubation, inhibition of cell proliferation
Summary of the method: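 MOLP-8 cells in RPMI1640 with 20% FCS, 4000 cells/well, treated overnight after seeding with substance at 1E-5 to 1E-8 M for 120 h at 37° C. Viability read by alamarBlue fluorescence (ex 530, em 590); pre-treatment values subtracted, compared with buffer-only cells to derive IC50.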

KMS-12-PE cells = assay: Cell proliferation assay (alamarBlue), KMS-12-PE; type: cell-based; details: Homo sapiens, 120 hours incubation, inhibition of cell proliferation
Summary of the method: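 KMS-12-PE myeloma cells in RPMI1640 with 20% FCS were exposed to compound (1E-5 to 1E-8 M) for 120 h at 37° C. AlamarBlue fluorescence (ex 530, em 590 nm) read before and after treatment; the difference versus buffer-treated cells gave IC50.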

LAPC-4 cells = assay: Cell proliferation assay (alamarBlue), LAPC-4; type: cell-based; details: Homo sapiens, LAPC4; inhibition of cell proliferation, LAPC-4 (prostate cancer), 1 nM methyltrienolone, 168 hours
MDA-MB-231 cells = assay: Cell proliferation assay (alamarBlue), MDA-MB-231; type: cell-based; details: Homo sapiens; inhibition of cell proliferation, MDA-MB-231 (breast carcinoma), 96 hours
Method: In accordance with the invention, the capability of the substances to inhibit cell proliferation was determined Cell viability was determined using the alamarBlue® reagent (Invitrogen) in a Victor X3 Multilabel Reader (Perkin Elmer). The excitation wavelength was 530 nm and the emission wavelenth […].
The MDA-MB-231 cells (DSMZ, ACC 732) were sown at a concentration of 4000 cells/well in 100 μl growth medium (DMEM/Ham's F12 medium, 10% FCS) on 96-well microtitre plates. The Caov-3 cells (ATCC, HTB-75) were sown at a concentration of 2000 cells/well in 100 μl growth medium (MEM Earle's medium, 10% FCS) on 96-well microtitre plates.
After an overnight incubation at 37° C., the fluorescence values (CI values) were determined. The plates were then treated with various substance dilutions (1E-5 M, 3E-6 M, 1E-6M, 3E-7 M, 1E-7 M, 3E-8 M, 1E-8 M) and incubated at 37° C. for 72 (MV4-11-, LOX-IMVI cells), 96 (MOLM-13-, B16F10-, MDA-MB-431-, Caov-3 cells), 120 (MOLP-8-, KMS-12-PE cells) or 168 (LAPC-4 cells) hours. The fluorescence values (CO values) were then determined. For the data analysis, the CI values were subtracted from the CO values and the results were compared between cells treated with different dilutions of the substance or with buffer solution only. These were used to calculate the IC 50 values (substance concentration required for 50% inhibition of cell proliferation).

Caov-3 cells = assay: Cell proliferation assay (alamarBlue), Caov-3; type: cell-based; details: Homo sapiens; inhibition of cell proliferation, Caov-3 (ovarian carcinoma), 96 hours
Summary of the method: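 Caov-3 (MEM Earle's, 10% FCS, 2000 cells/well) and MDA-MB-231 (DMEM/Ham's F12, 10% FCS, 4000 cells/well) were treated after overnight attachment with 1E-5 to 1E-8 M compound. Caov-3 exposure was 96 h. alamarBlue fluorescence (ex 530, em 590 nm) was read after background subtraction of day-0 values, and IC50 calculated versus buffer-treated cells.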

| IC50 (BRD4 (BD1)) | IC50 (MOLM-13 cells) | IC50 (MV4-11 cells) | IC50 (B16F10 cells) | IC50 (MDA-MB-231 cells) | SMILES | IC50 (LOX-IMVI cells) | IC50 (MOLP-8 cells) | IC50 (KMS-12-PE cells) | IC50 (LAPC-4 cells) | IC50 (Caov-3 cells) |
| --- | --- | --- | --- | --- | --- | --- | --- | --- | --- | --- |
| 30 nM | 200 nM | 170 nM | 140 nM | 250 nM | CNC(=O)N1N=C(c2ccc(N3CCOCC3)cc2)c2cc(OC)c(OC)cc2CC1C (racemic) [Example 7, (±)-7,8-Dimethoxy-N,4-dimethyl-1-[4-(morpholin-4-yl)phenyl]-4,5-dihydro-3H-2,3-benzodiazepine-3-carboxamide] | 570 nM | 120 nM | 90 nM | 90 nM | 400 nM |
| 50 nM | 240 nM | 260 nM | 110 nM | 210 nM | CNC(=O)N1N=C(c2ccc(-c3cc[nH]n3)cc2)c2cc(OC)c(OC)cc2CC1C (racemic) [Example 3, (±)-7,8-Dimethoxy-N,4-dimethyl-1-[4-(1H-pyrazol-3-yl)phenyl]-4,5-dihydro-3H-2,3-benzodiazepine-3-carboxamide] | 950 nM | 280 nM | 230 nM | 110 nM | 550 nM |
